Experimental data as given in the NIST ThermoML archive (doi:10.1021/acs.jced.7b00176).

Assay: xn = mol fraction of the nth substance listed
Settings: Liquid, Vibrating tube method

COCCOCCOC [2,5,8-trioxanonane] + CCCCO
Settings	mass density [kg/m3]
323.26 K, 30000 kPa, x2 = 0.7308	855.36
323.27 K, 100 kPa, x2 = 0.3116	884.02
323.27 K, 5000 kPa, x2 = 0.3116	888.39
323.27 K, 40000 kPa, x2 = 0.7308	862.01
323.27 K, 60000 kPa, x2 = 0.7308	874.24
323.27 K, 80000 kPa, x2 = 0.7308	885.1
323.27 K, 100000 kPa, x2 = 0.7308	894.94
323.28 K, 1000 kPa, x2 = 0.3116	884.84
323.28 K, 10000 kPa, x2 = 0.3116	892.57
323.28 K, 20000 kPa, x2 = 0.3116	900.61
323.28 K, 30000 kPa, x2 = 0.3116	907.85
323.28 K, 40000 kPa, x2 = 0.3116	914.76
323.28 K, 80000 kPa, x2 = 0.3116	938.32
323.29 K, 100 kPa, x2 = 0.8787	809.04
323.29 K, 1000 kPa, x2 = 0.8787	809.88
323.29 K, 5000 kPa, x2 = 0.8787	813.32
323.29 K, 10000 kPa, x2 = 0.8787	817.49
323.29 K, 20000 kPa, x2 = 0.8787	825.25
323.29 K, 30000 kPa, x2 = 0.8787	832.38
323.29 K, 40000 kPa, x2 = 0.8787	838.96
323.29 K, 60000 kPa, x2 = 0.3116	927.16
323.29 K, 60000 kPa, x2 = 0.8787	850.97
323.29 K, 80000 kPa, x2 = 0.8787	861.63
323.29 K, 100000 kPa, x2 = 0.3116	948.49
323.29 K, 100010 kPa, x2 = 0.8787	871.34
342.49 K, 100 kPa, x2 = 0	894.03
342.49 K, 1000 kPa, x2 = 0	894.98
342.49 K, 5000 kPa, x2 = 0	898.96
342.5 K, 10000 kPa, x2 = 0	903.66
342.5 K, 20000 kPa, x2 = 0	912.57
342.51 K, 30000 kPa, x2 = 0	920.68
342.51 K, 40000 kPa, x2 = 0	928.18
342.51 K, 60000 kPa, x2 = 0	941.77
342.51 K, 80000 kPa, x2 = 0	953.82
342.52 K, 100000 kPa, x2 = 0	964.68
342.99 K, 100 kPa, x2 = 0.5469	838.63
343 K, 1000 kPa, x2 = 0.5469	839.58
343 K, 5000 kPa, x2 = 0.5469	843.51
343 K, 10000 kPa, x2 = 0.5469	848.2
343.01 K, 20000 kPa, x2 = 0.5469	856.98
343.01 K, 30000 kPa, x2 = 0.5469	864.93
343.01 K, 40000 kPa, x2 = 0.5469	872.29
343.01 K, 60000 kPa, x2 = 0.5469	885.57
343.01 K, 80000 kPa, x2 = 0.5469	897.36
343.02 K, 100 kPa, x2 = 0.7308	814.17
343.02 K, 100000 kPa, x2 = 0.5469	907.94
343.03 K, 1000 kPa, x2 = 0.7308	815.11
343.03 K, 5000 kPa, x2 = 0.7308	819.06
343.03 K, 80000 kPa, x2 = 0.8787	849.39
343.04 K, 100 kPa, x2 = 0.3116	864.74
343.04 K, 100 kPa, x2 = 0.8787	792.02
343.04 K, 1000 kPa, x2 = 0.3116	865.7
343.04 K, 1000 kPa, x2 = 0.8787	792.98
343.04 K, 5000 kPa, x2 = 0.8787	796.88
343.04 K, 10000 kPa, x2 = 0.7308	823.7
343.04 K, 10000 kPa, x2 = 0.8787	801.5
343.04 K, 20000 kPa, x2 = 0.7308	832.39
343.04 K, 20000 kPa, x2 = 0.8787	810.09
343.04 K, 30000 kPa, x2 = 0.7308	840.28
343.04 K, 30000 kPa, x2 = 0.8787	817.86
343.04 K, 40000 kPa, x2 = 0.7308	847.55
343.04 K, 40000 kPa, x2 = 0.8787	825.03
343.04 K, 60000 kPa, x2 = 0.7308	860.64
343.04 K, 60000 kPa, x2 = 0.8787	837.96
343.04 K, 80000 kPa, x2 = 0.7308	872.22
343.04 K, 100000 kPa, x2 = 0.7308	882.62
343.04 K, 100000 kPa, x2 = 0.8787	859.63
343.05 K, 5000 kPa, x2 = 0.3116	869.66
343.05 K, 10000 kPa, x2 = 0.3116	874.4
343.06 K, 20000 kPa, x2 = 0.3116	883.26
343.06 K, 30000 kPa, x2 = 0.3116	891.31
343.06 K, 40000 kPa, x2 = 0.3116	898.79
343.06 K, 60000 kPa, x2 = 0.3116	912.24
343.07 K, 80000 kPa, x2 = 0.3116	924.13
343.08 K, 100000 kPa, x2 = 0.3116	934.89
362.51 K, 100 kPa, x2 = 0	873.45
362.51 K, 1000 kPa, x2 = 0	874.46
362.51 K, 5000 kPa, x2 = 0	879.02
362.52 K, 10000 kPa, x2 = 0	884.41
362.52 K, 20000 kPa, x2 = 0	894.33
362.52 K, 30000 kPa, x2 = 0	903.29
362.52 K, 40000 kPa, x2 = 0	911.53
362.53 K, 60000 kPa, x2 = 0	926.3
362.53 K, 80000 kPa, x2 = 0	939.26
362.53 K, 100000 kPa, x2 = 0	950.89
362.67 K, 100 kPa, x2 = 0.5469	819.52
362.68 K, 1000 kPa, x2 = 0.5469	820.52
362.68 K, 5000 kPa, x2 = 0.5469	825.03
362.68 K, 10000 kPa, x2 = 0.5469	830.34
362.69 K, 100 kPa, x2 = 0.8787	774.25
362.69 K, 1000 kPa, x2 = 0.8787	775.26
362.69 K, 5000 kPa, x2 = 0.8787	779.7
362.69 K, 20000 kPa, x2 = 0.5469	840.09
362.69 K, 30000 kPa, x2 = 0.5469	848.85
362.69 K, 40000 kPa, x2 = 0.5469	856.9
362.69 K, 60000 kPa, x2 = 0.5469	871.26
362.69 K, 80000 kPa, x2 = 0.5469	883.92
362.7 K, 5000 kPa, x2 = 0.3116	850.69
362.7 K, 10000 kPa, x2 = 0.8787	784.88
362.7 K, 20000 kPa, x2 = 0.8787	794.41
362.7 K, 30000 kPa, x2 = 0.8787	802.93
362.7 K, 40000 kPa, x2 = 0.8787	810.75
362.7 K, 60000 kPa, x2 = 0.8787	824.68
362.7 K, 100000 kPa, x2 = 0.5469	895.2
362.71 K, 100 kPa, x2 = 0.3116	845.12
362.71 K, 100 kPa, x2 = 0.7308	795.72
362.71 K, 1000 kPa, x2 = 0.3116	846.14
362.71 K, 10000 kPa, x2 = 0.3116	856.03
362.71 K, 20000 kPa, x2 = 0.3116	865.91
362.71 K, 30000 kPa, x2 = 0.3116	874.79
362.71 K, 80000 kPa, x2 = 0.8787	836.92
362.71 K, 100000 kPa, x2 = 0.8787	847.79
362.72 K, 1000 kPa, x2 = 0.7308	796.73
362.72 K, 5000 kPa, x2 = 0.7308	801.19
362.72 K, 10000 kPa, x2 = 0.7308	806.44
362.72 K, 20000 kPa, x2 = 0.7308	816.08
362.72 K, 30000 kPa, x2 = 0.7308	824.74
362.72 K, 40000 kPa, x2 = 0.3116	882.96
362.72 K, 40000 kPa, x2 = 0.7308	832.66
362.72 K, 60000 kPa, x2 = 0.3116	897.55
362.72 K, 80000 kPa, x2 = 0.3116	910.38
362.72 K, 100000 kPa, x2 = 0.3116	921.84
362.73 K, 60000 kPa, x2 = 0.7308	846.83
362.73 K, 80000 kPa, x2 = 0.7308	859.23
362.73 K, 100000 kPa, x2 = 0.7308	870.28
